Experimental data taken from the supplement of paper PMC10883282.
± gives the standard deviation of the averaged measurements.

Experiments:
Test in all cases: relative viability vs DMSO control (72 h) (fraction); higher = more viable cells
[1] = test system: SYO-1
Outline: (§1)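 Sarcoma cell lines were seeded in 384-well plates at densities chosen for 80–90% confluence, then 24 h later given 2.5 µl of serially diluted compound drawn from source plates spanning 10 mM to 0.0002 mM. They were held 72 h at 37 °C, 5% CO2, with 0.1% DMSO vehicle and a 5 µM positive control included. Relative viability was read with ATPLite as percent growth and averaged over up to triplicate wells. Rescaling placed full at 1 and none at 0.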

[2] = test system: SW872
Outline: as §1

[3] = test system: KHOS-NP
Outline: as §1

[4] = test system: SW684
Outline: as §1

[5] = test system: HT1080
Outline: as §1

[6] = test system: G401
Outline: as §1

[7] = test system: SK-LMS-1
Outline: as §1

[8] = test system: VA-ES-BJ
Outline: as §1

[9] = test system: HS729
Outline: as §1

[10] = test system: A204
Outline: as §1

[11] = test system: SW1353
Outline: as §1

[12] = test system: MES-SA
Outline: as §1

## CCN(CCCOc1ccc2c(Nc3cc(CC(=O)Nc4cccc(F)c4)[nH]n3)ncnc2c1)CCOP(=O)(O)O [Barasertib]
[1]; 0.00017 µM
  relative viability: 0.939 ± 0.011
[1]; 0.00051 µM
  relative viability: 0.918 ± 0.013
[1]; 0.00152 µM
  relative viability: 0.891 ± 0.014
[1]; 0.00457 µM
  relative viability: 0.82 ± 0.024
[1]; 0.01372 µM
  relative viability: 0.479 ± 0.026
[1]; 0.04115 µM
  relative viability: 0.415 ± 0.021
[1]; 0.1235 µM
  relative viability: 0.397 ± 0.024
[1]; 0.3704 µM
  relative viability: 0.337 ± 0.035
[1]; 1.111 µM
  relative viability: 0.319 ± 0.011
[1]; 3.333 µM
  relative viability: 0.284 ± 0.0079
[1]; 10 µM
  relative viability: 0.251 ± 0.017
[2]; 0.00017 µM
  relative viability: 1.01 ± 0.02
[2]; 0.00051 µM
  relative viability: 1.01 ± 0.006
[2]; 0.00152 µM
  relative viability: 0.9782 ± 0.0088
[2]; 0.00457 µM
  relative viability: 0.985 ± 0.017
[2]; 0.01372 µM
  relative viability: 0.975 ± 0.012
[2]; 0.04115 µM
  relative viability: 0.962 ± 0.031
[2]; 0.1235 µM
  relative viability: 0.897 ± 0.03
[2]; 0.3704 µM
  relative viability: 0.918 ± 0.017
[2]; 1.111 µM
  relative viability: 0.912 ± 0.027
[2]; 3.333 µM
  relative viability: 0.892 ± 0.022
[2]; 10 µM
  relative viability: 0.8645 ± 0.0036
[3]; 0.00017 µM
  relative viability: 1.03 ± 0.035
[3]; 0.00051 µM
  relative viability: 1.03 ± 0.032
[3]; 0.00152 µM
  relative viability: 1.04 ± 0.015
[3]; 0.00457 µM
  relative viability: 1.048 ± 0.0078
[3]; 0.01372 µM
  relative viability: 1.05 ± 0.029
[3]; 0.04115 µM
  relative viability: 1.072 ± 0.005
[3]; 0.1235 µM
  relative viability: 1.08 ± 0.023
[3]; 0.3704 µM
  relative viability: 1.09 ± 0.021
[3]; 1.111 µM
  relative viability: 1.11 ± 0.017
[3]; 3.333 µM
  relative viability: 1.12 ± 0.013
[3]; 10 µM
  relative viability: 1.13 ± 0.007
[4]; 0.00017 µM
  relative viability: 1.11 ± 0.028
[4]; 0.00051 µM
  relative viability: 1.11 ± 0.028
[4]; 0.00152 µM
  relative viability: 1.15 ± 0.054
[4]; 0.00457 µM
  relative viability: 1.15 ± 0.025
[4]; 0.01372 µM
  relative viability: 1.12 ± 0.022
[4]; 0.04115 µM
  relative viability: 1.04 ± 0.034
[4]; 0.1235 µM
  relative viability: 1.06 ± 0.04
[4]; 0.3704 µM
  relative viability: 1.11 ± 0.028
[4]; 1.111 µM
  relative viability: 1.08 ± 0.044
[4]; 3.333 µM
  relative viability: 0.977 ± 0.038
[4]; 10 µM
  relative viability: 0.816 ± 0.019
[5]; 0.00017 µM
  relative viability: 1.05 ± 0.024
[5]; 0.00051 µM
  relative viability: 1.04 ± 0.025
[5]; 0.00152 µM
  relative viability: 1.04 ± 0.03
[5]; 0.00457 µM
  relative viability: 1.04 ± 0.0055
[5]; 0.01372 µM
  relative viability: 1.02 ± 0.012
[5]; 0.04115 µM
  relative viability: 0.977 ± 0.029
[5]; 0.1235 µM
  relative viability: 0.878 ± 0.025
[5]; 0.3704 µM
  relative viability: 0.89 ± 0.019
[5]; 1.111 µM
  relative viability: 0.9017 ± 0.0075
[5]; 3.333 µM
  relative viability: 0.895 ± 0.033
[5]; 10 µM
  relative viability: 0.87 ± 0.019
[6]; 0.00017 µM
  relative viability: 0.961 ± 0.023
[6]; 0.00051 µM
  relative viability: 0.998 ± 0.02
[6]; 0.00152 µM
  relative viability: 0.996 ± 0.015
[6]; 0.00457 µM
  relative viability: 0.97 ± 0.021
[6]; 0.01372 µM
  relative viability: 0.897 ± 0.013
[6]; 0.04115 µM
  relative viability: 0.798 ± 0.031
[6]; 0.1235 µM
  relative viability: 0.777 ± 0.028
[6]; 0.3704 µM
  relative viability: 0.8003 ± 0.0051
[6]; 1.111 µM
  relative viability: 0.799 ± 0.014
[6]; 3.333 µM
  relative viability: 0.776 ± 0.034
[6]; 10 µM
  relative viability: 0.677 ± 0.016
[7]; 0.00017 µM
  relative viability: 1.02 ± 0.05
[7]; 0.00051 µM
  relative viability: 1.02 ± 0.061
[7]; 0.00152 µM
  relative viability: 1.03 ± 0.026
[7]; 0.00457 µM
  relative viability: 1 ± 0.019
[7]; 0.01372 µM
  relative viability: 1.06 ± 0.023
[7]; 0.04115 µM
  relative viability: 1.01 ± 0.035
[7]; 0.1235 µM
  relative viability: 0.917 ± 0.032
[7]; 0.3704 µM
  relative viability: 0.855 ± 0.023
[7]; 1.111 µM
  relative viability: 0.904 ± 0.015
[7]; 3.333 µM
  relative viability: 0.887 ± 0.036
[7]; 10 µM
  relative viability: 0.867 ± 0.012
[8]; 0.00017 µM
  relative viability: 1.01 ± 0.021
[8]; 0.00051 µM
  relative viability: 1.01 ± 0.037
[8]; 0.00152 µM
  relative viability: 0.986 ± 0.048
[8]; 0.00457 µM
  relative viability: 0.998 ± 0.069
[8]; 0.01372 µM
  relative viability: 0.84 ± 0.015
[8]; 0.04115 µM
  relative viability: 0.634 ± 0.034
[8]; 0.1235 µM
  relative viability: 0.619 ± 0.024
[8]; 0.3704 µM
  relative viability: 0.647 ± 0.028
[8]; 1.111 µM
  relative viability: 0.689 ± 0.015
[8]; 3.333 µM
  relative viability: 0.68 ± 0.055
[8]; 10 µM
  relative viability: 0.727 ± 0.012
[9]; 0.00017 µM
  relative viability: 0.957 ± 0.065
[9]; 0.00051 µM
  relative viability: 0.934 ± 0.057
[9]; 0.00152 µM
  relative viability: 0.947 ± 0.025
[9]; 0.00457 µM
  relative viability: 0.936 ± 0.032
[9]; 0.01372 µM
  relative viability: 0.901 ± 0.03
[9]; 0.04115 µM
  relative viability: 0.934 ± 0.067
[9]; 0.1235 µM
  relative viability: 0.877 ± 0.088
[9]; 0.3704 µM
  relative viability: 0.801 ± 0.13
[9]; 1.111 µM
  relative viability: 0.8 ± 0.12
[9]; 3.333 µM
  relative viability: 0.815 ± 0.077
[9]; 10 µM
  relative viability: 0.804 ± 0.032
[10]; 0.00017 µM
  relative viability: 1.05 ± 0.023
[10]; 0.00051 µM
  relative viability: 1.05 ± 0.037
[10]; 0.00152 µM
  relative viability: 1.05 ± 0.025
[10]; 0.00457 µM
  relative viability: 1.04 ± 0.012
[10]; 0.01372 µM
  relative viability: 0.9872 ± 0.0047
[10]; 0.04115 µM
  relative viability: 0.907 ± 0.051
[10]; 0.1235 µM
  relative viability: 0.859 ± 0.053
[10]; 0.3704 µM
  relative viability: 0.813 ± 0.047
[10]; 1.111 µM
  relative viability: 0.7 ± 0.037
[10]; 3.333 µM
  relative viability: 0.441 ± 0.028
[10]; 10 µM
  relative viability: 0.379 ± 0.022
[11]; 0.00017 µM
  relative viability: 0.955 ± 0.029
[11]; 0.00051 µM
  relative viability: 0.972 ± 0.025
[11]; 0.00152 µM
  relative viability: 0.939 ± 0.052
[11]; 0.00457 µM
  relative viability: 0.985 ± 0.025
[11]; 0.01372 µM
  relative viability: 0.867 ± 0.06
[11]; 0.04115 µM
  relative viability: 0.841 ± 0.036
[11]; 0.1235 µM
  relative viability: 0.842 ± 0.03
[11]; 0.3704 µM
  relative viability: 0.812 ± 0.019
[11]; 1.111 µM
  relative viability: 0.823 ± 0.0036
[11]; 3.333 µM
  relative viability: 0.82 ± 0.012
[11]; 10 µM
  relative viability: 0.8463 ± 0.0075
[12]; 0.00017 µM
  relative viability: 0.92 ± 0.011
[12]; 0.00051 µM
  relative viability: 0.915 ± 0.0084
[12]; 0.00152 µM
  relative viability: 0.911 ± 0.018
[12]; 0.00457 µM
  relative viability: 0.892 ± 0.025
[12]; 0.01372 µM
  relative viability: 0.692 ± 0.025
[12]; 0.04115 µM
  relative viability: 0.448 ± 0.011
[12]; 0.1235 µM
  relative viability: 0.448 ± 0.024
[12]; 0.3704 µM
  relative viability: 0.447 ± 0.016
[12]; 1.111 µM
  relative viability: 0.436 ± 0.0066
[12]; 3.333 µM
  relative viability: 0.444 ± 0.013
[12]; 10 µM
  relative viability: 0.398 ± 0.011
